Data from patent US9833431B2, “Pharmaceutical combinations for the treatment of cancer” (Pitney Pharmaceuticals Pty Limited, priority 2013, dated 2017).

How the values were obtained:
[1] = tested on: DU-145; experiment: SRB cytotoxicity assay, DU-145 cells; type: cell-based; conditions: Homo sapiens, DU-145, malignant, prostatic, 72 h
Method: (§1) All cell lines described herein were purchased from ATCC. […] Control cultures were treated with ethanol alone.

[2] = tested on: HUVEC, human fetal astrocytes and HOSE cells; experiment: SRB cytotoxicity assay, summary over early/primary passage cells; type: cell-based; conditions: summary of Table 3, read-out: IC50 proliferation
Method: as §1

[3] = tested on: SKOV-1; experiment: SRB cytotoxicity assay, SKOV-1 cells
Method: (§2) Cells were seeded in 96-well plates (2,000-3,000 cells/well), treated with the indicated compound(s) for 72 h, fixed, washed and stained with 100 μl of 0.4% (w/v) SRB dissolved in 1% acetic acid. Unbound dye was removed by five washes with 1% acetic acid before air-drying.
MPL (5 μM) and combination drugs were applied for 72 h unless indicated.

[4] = tested on: MCF-7; experiment: SRB cytotoxicity assay, MCF-7 cells; type: cell-based; conditions: Homo sapiens, MCF7, 72 h, MCF-7, malignant, breast
Method: as §1

[5] = tested on: HUVEC; experiment: SRB cytotoxicity assay, HUVEC; type: cell-based; conditions: Homo sapiens, non-malignant, endothelial, 72 h
Method: as §1

[6] = tested on: PC-3; experiment: SRB cytotoxicity assay, PC-3 cells; type: cell-based; conditions: Homo sapiens, PC-3, malignant, prostatic, 72 h
Method: as §1

[7] = tested on: A2780; experiment: SRB cytotoxicity / proliferation assay, A2780 cells; conditions: for Mpl Alone, Mpl (x/X) Inhibition: A2780 Ovarian, 72 h, x=events, X=experiments
Method: Cells were seeded in 96-well plates (2,000-3,000 cells/well) and culture overnight prior to treatment with MPL. Control cultures were treated with ethanol alone.
as §2
Cell viability was conducted according to standard Trypan Blue method. Cell proliferation was assessed using the sulforhodamine B (SRB) assay. For viability experiments, cells were seeded in 6 well plates, whereas for proliferation assays cells were grown in 96 well plates. Following over-night attachment, cells were treated with the intended drug at various concentrations either alone or in combination with monepantel (MPL) for 72 h. Parallel to this, cells treated with MPL alone were also deployed for comparative purposes. Following incubation for 72 h in a standard cell culture incubator, effect of mono and combined drug treatments on cell viability and/or cell proliferation was assessed through using Trypan Blue or SRB assays respectively.
For viability assay, at the end of treatment period, cells were washed with PBS, trypsinized and counted using Trypan blue and hemocytometer. For the SRB assay cells were fixed, washed and stained with 100 μl of 0.4% (w/v) SRB dissolved in 1% acetic acid. Unbound dye was removed by five washes with 1% acetic acid before air drying. […] Monepantel (gift by Novartis, Basel, Switzerland) was dissolved in 100% ethanol and then diluted with the cell culture media.

For `C[C@](C#N)(COc1cc(C#N)ccc1C(F)(F)F)NC(=O)c1ccc(SC(F)(F)F)cc1` [MPL, N-[(1S)-1-cyano-2-(5-cyano-2-trifluoromethyl-phenoxy)-1-methyl-ethyl]-4-trifluoromethylsulfanyl-benzamide], the IC50 [1] was 23 µM, the IC50 [2] was > 85 µM and the “A) Single treatment, one symbol per experiment” value ([3]; SKOV-1, MPL (5 μM), 72 h) was “✓✓✓”. The “significant cytotoxic effect of MPL alone” value ([3]; SKOV-1 cells, MPL 5 μM, 3/3 experiments) was “significant cytotoxic effect”, the IC50 [4] was 15.5 µM and the IC50 [5] was 87 µM. For the same molecule, the IC50 [6] was 21 µM, the “Mpl Alone, Mpl (x/X) Inhibition” value ([7]; 5 μM MPL, Table 6) was 6/6^2 and the “Mpl Alone, Mpl (x/X) Inhibition” value ([7]; 5 μM MPL, Table 7) was “(4/4)”. The “Mpl Alone, Mpl (x/X) Inhibition” value ([7]; 5 or 10 μM MPL, Table 8 lower panel) was “(5/5)^”, the “Mpl Alone, Mpl (x/X) Inhibition” value ([7]; 5 or 10 μM MPL, Table 8 upper panel) was “(3/3)” and the IC50 ([7]; Homo sapiens, A2780, 72 h) was 10 ± 3.8 µM.
